Test results as given in patent publication US11260023B2, “Topical compositions containing rofecoxib and methods of making and using the same” (BRIORI BIOTECH, LLC, priority 2020, dated 2022).
“And” between values parts separate entries of the source, which are not always exact repeats. Equal values may be shown once.

Experiment: Solubility of rofecoxib in solvent systems containing two or three solvents; synergistic or antagonist effect
Assay type: physicochemical
Method: The solubility of rofecoxib in solvent systems containing two or three solvents was determined. In solvent systems containing two solvents, […] of each solvent was added to 100 mg of rofecoxib. In solvent systems containing three solvents, […] of each solvent was added to 100 mg of rofecoxib. The samples were mixed using the protocol for solvent systems containing single solvents above. Serial dilutions of the rofecoxib solvent solutions were made (1:100 v:v), (1:1000 v/v), and (1:2000 v/v). Solvents without rofecoxib were diluted with methanol and used to blank a Beckman DU-7400 spectrophotometer. The absorbance of the samples was determined at a wavelength of 279.1 nm. The concentration of rofecoxib dissolved in the solvent was calculated using Beer's Law. The ability of the solvent systems to synergistically dissolve rofecoxib or antagonistically dissolve rofecoxib (reduce the ability of rofecoxib to dissolve was determined) according to the protocol below. The contribution for solubility of a single solvent in a two-mixture solution was calculated to be ½ of the calculated solubility of rofecoxib in one gram of excipient. Likewise, the contribution for solubility of a three-mixture was calculated to be ⅓ of the calculated solubility of rofecoxib in one gram of excipient. The expected solubility for a mixture is the addition of the contribution of each excipient. […] The percent change between the expected solubility and actual solubility was determined. […] Similar calculations are utilized for solvent systems containing three or more solvents.

In the case of CS(=O)(=O)c1ccc(C2=C(c3ccccc3)C(=O)OC2)cc1 [Rofecoxib], the “Synergistic effect of three-solvent systems on dissolving rofecoxib” value (AC/PEG/PGD, BA/AC/PEG, BA/PEG/PGD, PC/AC/PGD, BA/AC/PGD, PC/PEG/PGD, DI/PC/AC, PC/BA/AC, DI/PC/BA, DI/PC/EA, PC/AC/PEG, DI/PC/DGME, DI/PC/PEG, DI/PC/PGD, DI/BA/PC, DI/PC/DMSO) was “work synergistically to dissolve rofecoxib”, the “Synergistic effect of two-solvent systems on dissolving rofecoxib” value (BA/AC, AC/PEG, EA/PPG, PEG/EA, AC/DGME, AC/PC, AC/DI, PC/DI, PEG/PGD, AC/PGD, DI/PGD, PC/PGD, EA/DMSO, PEG/DGME, EA/DGME, EA/BA, DGME/PGD, BA/PGD, EA/M24D) was “work synergistically to dissolve rofecoxib” and the “expected solubility of rofecoxib in 500 μg of acetone” value (contribution of acetone in system of equal amounts acetone and benzyl alcohol) was 11.79 mg/g. For the same molecule, the “expected solubility of rofecoxib in 500 μg of benzyl alcohol” value (contribution of benzyl alcohol in system of equal amounts acetone and benzyl alcohol) was 9.77 mg/g, the “% Change (observed vs expected solubility)” value (shortened to “% Change”) (in AC + DGME) was 139.9% and the “Expected Solubility” value (in AC + DGME) was 16.30 mg/g. For the same molecule, the “Observed Solubility” value (in AC + DGME) was 22.80 mg/g, the “% Change” value (in AC + EA) was 109.7% and the “Expected Solubility” value (in AC + EA) was 14.52 mg/g. For the same molecule, the “Observed Solubility” value (in AC + EA) was 15.92 mg/g, the “% Change” value (in AC + MP) was 97.9% and 52.7% and the “Expected Solubility” value (in AC + MP) was 110.77 mg/g. The “Observed Solubility” value (in AC + MP) was 108.48 mg/g and 58.38 mg/g, the “% Change” value (in AC + MP + PEG) was 34.29% and the “Expected Solubility” value (in AC + MP + PEG) was 78.24 mg/g. The “% Change” value (in AC + MP + PGD) was 77.19%, the “Expected Solubility” value (in AC + MP + PGD) was 76.17 mg/g and the “% Change” value (in AC + PEG) was 137.2% and 174.3%. The “Expected Solubility” value (in AC + PEG) was 18.34 mg/g, the “Observed Solubility” value (in AC + PEG) was 25.15 mg/g and 31.96 mg/g and the “Expected Solubility” value (in AC + PEG + PGD) was 14.55 mg/g. For the same molecule, the “% Change” value (in AC + PGD) was 124.0% and 113.7%, the “Expected Solubility” value (in AC + PGD) was 15.23 mg/g and the “Observed Solubility” value (in AC + PGD) was 18.88 mg/g and 17.32 mg/g. The “% Change” value (in BA + AC) was 150.7% and 134.8% and 100.7% and 185.3%, the “Expected Solubility” value (in BA + AC) was 21.54 mg/g and 31.65 mg/g and the “Observed Solubility” value (in BA + AC) was 32.46 mg/g and 29.03 mg/g and 31.86 mg/g and 39.91 mg/g. The “% Change” value (in BA + AC + MP) was 48.23%, the “Expected Solubility” value (in BA + AC + MP) was 80.37 mg/g and the “Expected Solubility” value (in BA + AC + PEG) was 18.75 mg/g. The “% Change” value (in BA + AC + PGD) was 197.12%, the “Expected Solubility” value (in BA + AC + PGD) was 16.68 mg/g and the “Observed Solubility” value (in BA + AC + PGD) was 32.89 mg/g. The “Expected Solubility” value (in BA + AC, listed as rofecoxib) was 21.56 mg/g, the “% Change” value (in BA + DGME) was 64.2% and the “Expected Solubility” value (in BA + DGME) was 14.31 mg/g. The “Observed Solubility” value (in BA + DGME) was 9.18 mg/g, the “% Change” value (in BA + EA) was 116.8% and the “Expected Solubility” value (in BA + EA) was 12.52 mg/g. For the same molecule, the “Observed Solubility” value (in BA + EA) was 14.63 mg/g, the “% Change” value (in BA + MP) was 41.3% and 30.8% and the “Expected Solubility” value (in BA + MP) was 108.77 mg/g. For the same molecule, the “Observed Solubility” value (in BA + MP) was 44.97 mg/g and 33.53 mg/g, the “% Change” value (in BA + MP + PEG) was 40.43% and the “Expected Solubility” value (in BA + MP + PEG) was 76.89 mg/g. The “% Change” value (in BA + MP + PGD) was 85.42%, the “Expected Solubility” value (in BA + MP + PGD) was 74.82 mg/g and the “% Change” value (in BA + PEG) was 63.2% and 61.6% and 60.6%. The “Expected Solubility” value (in BA + PEG) was 16.34 mg/g, the “Observed Solubility” value (in BA + PEG) was 10.33 mg/g and 10.06 mg/g and 9.91 mg/g and the “Expected Solubility” value (in BA + PEG + PGD) was 13.20 mg/g. The “% Change” value (in BA + PGD) was 110.9% and 103.2%, the “Expected Solubility” value (in BA + PGD) was 13.24 mg/g and the “Observed Solubility” value (in BA + PGD) was 14.67 mg/g and 13.66 mg/g. For the same molecule, the “% Change” value (in DGME + EA) was 117.3%, the “Expected Solubility” value (in DGME + EA) was 7.29 mg/g and the “Observed Solubility” value (in DGME + EA) was 8.54 mg/g. For the same molecule, the “% Change” value (in DGME + PGD) was 115.7%, the “Expected Solubility” value (in DGME + PGD) was 8.00 mg/g and the “Observed Solubility” value (in DGME + PGD) was 9.26 mg/g. For the same molecule, the “% Change” value (in DI + AC) was 134.6%, the “Expected Solubility” value (in DI + AC) was 31.34 mg/g and the “Observed Solubility” value (in DI + AC) was 42.18 mg/g. The “% Change” value (in DI + BA) was 72.3%, the “Expected Solubility” value (in DI + BA) was 29.34 mg/g and the “Observed Solubility” value (in DI + BA) was 21.20 mg/g. For the same molecule, the “% Change” value (in DI + BA + DMSO) was 85.05%, the “Expected Solubility” value (in DI + BA + DMSO) was 67.43 mg/g and the “% Change” value (in DI + BA + PC) was 155.19%. The “Expected Solubility” value (in DI + BA + PC) was 36.04 mg/g, the “Observed Solubility” value (in DI + BA + PC) was 55.93 mg/g and the “% Change” value (in DI + DGME) was 95.0%. The “Expected Solubility” value (in DI + DGME) was 24.11 mg/g, the “Observed Solubility” value (in DI + DGME) was 22.91 mg/g and the “% Change” value (in DI + EA) was 69.9%. The “Expected Solubility” value (in DI + EA) was 22.32 mg/g, the “Observed Solubility” value (in DI + EA) was 15.60 mg/g and the “% Change” value (in DI + MP) was 71.6%. For the same molecule, the “Expected Solubility” value (in DI + MP) was 118.57 mg/g, the “Observed Solubility” value (in DI + MP) was 84.92 mg/g and the “% Change” value (in DI + PC) was 133.9% and 130.6%. The “Expected Solubility” value (in DI + PC) was 44.29 mg/g, the “Observed Solubility” value (in DI + PC) was 59.30 mg/g and 57.83 mg/g and the “% Change” value (in DI + PC + AC) was 143.72%. The “Expected Solubility” value (in DI + PC + AC) was 37.38 mg/g, the “Observed Solubility” value (in DI + PC + AC) was 53.73 mg/g and the “% Change” value (in DI + PC + BA) was 132.30%. The “Expected Solubility” value (in DI + PC + BA) was 36.04 mg/g, the “Observed Solubility” value (in DI + PC + BA) was 47.68 mg/g and the “% Change” value (in DI + PC + DGME) was 123.28%. For the same molecule, the “Expected Solubility” value (in DI + PC + DGME) was 32.55 mg/g, the “Observed Solubility” value (in DI + PC + DGME) was 40.12 mg/g and the “% Change” value (in DI + PC + DMSO) was 114.83%. For the same molecule, the “Expected Solubility” value (in DI + PC + DMSO) was 77.39 mg/g, the “% Change” value (in DI + PC + EA) was 128.04% and the “Expected Solubility” value (in DI + PC + EA) was 31.36 mg/g. For the same molecule, the “Observed Solubility” value (in DI + PC + EA) was 40.15 mg/g, the “% Change” value (in DI + PC + PEG) was 119.10% and the “Expected Solubility” value (in DI + PC + PEG) was 33.90 mg/g. For the same molecule, the “Observed Solubility” value (in DI + PC + PEG) was 40.38 mg/g, the “% Change” value (in DI + PC + PGD) was 115.12% and the “Expected Solubility” value (in DI + PC + PGD) was 31.83 mg/g. The “Observed Solubility” value (in DI + PC + PGD) was 36.65 mg/g, the “% Change” value (in DI + PEG) was 105.8% and the “Expected Solubility” value (in DI + PEG) was 26.14 mg/g. For the same molecule, the “Observed Solubility” value (in DI + PEG) was 27.65 mg/g.
